Measured values as given in US6613747B2, “6-O-carbamoyl ketolide antibacterials” (Ortho-McNeil Pharmaceutical, Inc., priority 2000, dated 2003).
≈ marks a conversion by molar mass, not a printed value.

What was measured:
Test in all cases: MIC, microdilution broth method (NCCLS)
Type in all cases: cell-based
H. influenzae ATCC49247 = conditions: E: H. influenzae ATCC49247, 35° C., 16-20 hours
Outline: (§1)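 Two-fold serial compound dilutions in cation-adjusted Mueller-Hinton broth were inoculated at approximately 5×10^4 CFU/well from actively growing cultures, incubated at 35° C. for 16-20 hours, and growth was compared with compound-free control wells to give the MIC.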

S. pneumoniae ATCC49619 = conditions: D: S. pneumoniae ATCC49619, 35° C., 16-20 hours
Outline: as §1

E. faecalis ATCC29212 = conditions: C: E. faecalis ATCC29212, 35° C., 16-20 hours
Outline: as §1

S. aureus ATCC29213 = conditions: B: S. aureus ATCC29213, 35° C., 16-20 hours
Outline: as §1

E. coli OC2605 = conditions: A: E. coli OC2605, 35° C., 16-20 hours
Outline: as §1

MIC (H. influenzae ATCC49247) | MIC (S. pneumoniae ATCC49619) | MIC (E. faecalis ATCC29212) | MIC (S. aureus ATCC29213) | MIC (E. coli OC2605) | SMILES
2 mg/L (≈ 2.47 µM) | 0.03 mg/L (≈ 0.0371 µM) | 0.12 mg/L (≈ 0.148 µM) | 0.25 mg/L (≈ 0.309 µM) | 8 mg/L (≈ 9.89 µM) | CC[C@H]1OC(=O)[C@H](C)C(=O)[C@H](C)[C@@H](O[C@@H]2O[C@H](C)C[C@H](N(C)C)[C@H]2O)[C@](C)(OC(=O)NC/C=C/c2cncc3ccccc23)C[C@@H](C)C(=O)[C@H](C)[C@H]2NC(=O)O[C@@]21C [Compound 52]
4 mg/L (≈ 4.83 µM) | 0.03 mg/L (≈ 0.0362 µM) | 0.06 mg/L (≈ 0.0725 µM) | 0.25 mg/L (≈ 0.302 µM) | 16 mg/L (≈ 19.3 µM) | CC[C@H]1OC(=O)[C@H](C)C(=O)[C@H](C)[C@@H](O[C@@H]2O[C@H](C)C[C@H](N(C)C)[C@H]2O)[C@](C)(OC(=O)NCc2ccc(-c3ncccn3)cc2F)C[C@@H](C)C(=O)[C@H](C)[C@H]2NC(=O)O[C@@]21C [Compound 87]
8 mg/L (≈ 9.69 µM) | 0.06 mg/L (≈ 0.0726 µM) | 0.25 mg/L (≈ 0.303 µM) | 2 mg/L (≈ 2.42 µM) | >16 mg/L | CC[C@H]1OC(=O)[C@H](C)C(=O)[C@H](C)[C@@H](O[C@@H]2O[C@H](C)C[C@H](N(C)C)[C@H]2O)[C@](C)(OC(=O)NCc2ccc(Oc3ncccn3)cc2)C[C@@H](C)C(=O)[C@H](C)[C@H]2NC(=O)O[C@@]21C [Compound 83]
4 mg/L (≈ 4.75 µM) | 0.06 mg/L (≈ 0.0713 µM) | 0.12 mg/L (≈ 0.143 µM) | 0.25 mg/L (≈ 0.297 µM) | >16 mg/L | CC[C@H]1OC(=O)[C@H](C)C(=O)[C@H](C)[C@@H](O[C@@H]2O[C@H](C)C[C@H](N(C)C)[C@H]2O)[C@](C)(OC(=O)NC/C=C/c2ccc(-n3cccn3)c(F)c2)C[C@@H](C)C(=O)[C@H](C)[C@H]2NC(=O)O[C@@]21C [Compound 58]
4 mg/L (≈ 4.79 µM) | 0.03 mg/L (≈ 0.0359 µM) | 0.12 mg/L (≈ 0.144 µM) | 0.12 mg/L (≈ 0.144 µM) | 16 mg/L (≈ 19.2 µM) | CC[C@H]1OC(=O)[C@H](C)C(=O)[C@H](C)[C@@H](O[C@@H]2O[C@H](C)C[C@H](N(C)C)[C@H]2O)[C@](C)(OC(=O)NC/C=C/c2ccc(-c3ccccn3)cc2)C[C@@H](C)C(=O)[C@H](C)[C@H]2NC(=O)O[C@@]21C [Compound 19]
4 mg/L (≈ 4.85 µM) | 0.06 mg/L (≈ 0.0728 µM) | 0.12 mg/L (≈ 0.146 µM) | 0.25 mg/L (≈ 0.303 µM) | >16 mg/L | CC[C@H]1OC(=O)[C@H](C)C(=O)[C@H](C)[C@@H](O[C@@H]2O[C@H](C)C[C@H](N(C)C)[C@H]2O)[C@](C)(OC(=O)NC/C=C/c2cnn(-c3ccccc3)c2)C[C@@H](C)C(=O)[C@H](C)[C@H]2NC(=O)O[C@@]21C [Compound 62]
8 mg/L (≈ 10.3 µM) | 0.12 mg/L (≈ 0.155 µM) | 1 mg/L (≈ 1.29 µM) | 2 mg/L (≈ 2.58 µM) | >16 mg/L | CC[C@H]1OC(=O)[C@H](C)C(=O)[C@H](C)[C@@H](O[C@@H]2O[C@H](C)C[C@H](N(C)C)[C@H]2O)[C@](C)(OC(=O)NCCNCc2cccnc2)C[C@@H](C)C(=O)[C@H](C)[C@H]2NC(=O)O[C@@]21C [Compound 116]
0.5 mg/L (≈ 0.574 µM) | ≦0.015 μg/mL | 0.12 mg/L (≈ 0.138 µM) | 0.25 mg/L (≈ 0.287 µM) | 8 mg/L (≈ 9.19 µM) | CCC1OC(=O)C(C)(F)C(=O)C(C)C(OC2OC(C)CC(N(C)C)C2O)C(C)(OC(=O)NCC=Cc2ccnc(Br)c2)CC(C)C(=NO)C(C)C2NC(=O)OC12C (stereo not drawn) [Compound 130]

SMILES | MIC (H. influenzae ATCC49247) | MIC (S. pneumoniae ATCC49619) | MIC (E. faecalis ATCC29212) | MIC (S. aureus ATCC29213) | MIC (E. coli OC2605)
CC[C@H]1OC(=O)[C@H](C)C(=O)[C@H](C)[C@@H](O[C@@H]2O[C@H](C)C[C@H](N(C)C)[C@H]2O)[C@](C)(OC(=O)NC/C=C/c2ccc(-c3cncnc3)cc2)C[C@@H](C)C(=O)[C@H](C)[C@H]2NC(=O)O[C@@]21C [Compound 27] | 4 mg/L (≈ 4.78 µM) | 0.06 mg/L (≈ 0.0718 µM) | 0.12 mg/L (≈ 0.144 µM) | 0.25 mg/L (≈ 0.299 µM) | 16 mg/L (≈ 19.1 µM)
